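Abbreviation: GI50, concentration required for 50% inhibition of growth. TGI: concentration producing complete growth inhibition.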
What was measured:
Assay in all cases: NCI-60 cell line screen, 384-well format
SK-MEL-28 melanoma = test system: SK-MEL-28 melanoma
SW-620 colon = test system: SW-620 colon
BT-549 breast = test system: BT-549 breast
SF-295 CNS = test system: SF-295 CNS
IGROV1 ovarian = test system: IGROV1 ovarian
UACC-62 melanoma = test system: UACC-62 melanoma
HL-60(TB) leukemia = test system: HL-60(TB) leukemia
NCI-H522 lung = test system: NCI-H522 lung
HCT-15 colon = test system: HCT-15 colon
TK-10 renal = test system: TK-10 renal
OVCAR-5 ovarian = test system: OVCAR-5 ovarian
EKVX NSCLC = test system: EKVX NSCLC
SF-539 CNS = test system: SF-539 CNS

CC(C)[C@](O)(c1ccc2cc(OC(F)F)c(OC(F)F)cc2c1)c1cn[nH]n1
GI50 (SK-MEL-28 melanoma): 17.2 µM | TGI (SK-MEL-28 melanoma): 31.5 µM | GI50 (SW-620 colon): 15.2 µM | TGI (SW-620 colon): 28.8 µM | GI50 (BT-549 breast): 14.6 µM | TGI (BT-549 breast): 27.9 µM | GI50 (SF-295 CNS): 15 µM | TGI (SF-295 CNS): 28.7 µM | GI50 (IGROV1 ovarian): 17.6 µM | TGI (IGROV1 ovarian): 37 µM | GI50 (UACC-62 melanoma): 16.4 µM | TGI (UACC-62 melanoma): 30 µM | GI50 (HL-60(TB) leukemia): 6.11 µM | TGI (HL-60(TB) leukemia): 16.1 µM | GI50 (NCI-H522 lung): 13.6 µM | TGI (NCI-H522 lung): 27.7 µM | GI50 (HCT-15 colon): 14.4 µM | TGI (HCT-15 colon): 27.8 µM | GI50 (TK-10 renal): 14.7 µM | TGI (TK-10 renal): 30.2 µM | GI50 (OVCAR-5 ovarian): 17.3 µM | TGI (OVCAR-5 ovarian): 38.2 µM | GI50 (EKVX NSCLC): 13.1 µM | TGI (EKVX NSCLC): 28.8 µM | GI50 (SF-539 CNS): 16.8 µM | TGI (SF-539 CNS): 30.5 µM

— PubChem BioAssay (NCI)
